Source: publication PMC8488277, “Permeability Data of Organosulfur Garlic Compounds Estimated by Immobilized Artificial Membrane Chromatography: Correlation Across Several Biological Barriers” (Frontiers in Chemistry, 2021)
Read-outs that look alike come from different tables or passages of the source.

Legend:
[1] = IAM-HPLC chromatographic capacity factor (log k' IAM); type: physicochemical; details: IAM.PC.MG 12 µm column; isocratic ACN/0.035 M phosphate buffer pH 6.8 (30:70 v/v), 0.5 ml/min; k'=(Tr–T0)/T0; mean of 2–4 determinations
Protocol: Chromatographic analysis was performed using a Shimadzu LC 20A chromatograph coupled to a diode array detector, operated at a range of 210–260 nm, depending on the analyzed compound. A biomimetic commercially available column was used in all experiments: IAM. PC.MG12 µm (150 × 4.6 mm) was purchased from Regis Chemical Company (Morton Grove, IL).
OSC separation conditions under IAM-HPLC were adapted from [Luco et al. (2003]) and [Barbato et al. (1998]), with modifications. The chromatographic mode consisted in an isocratic elution used as the mobile phase ACN/0.035 M phosphate buffer −pH 6.8− (30:70 (v/v)) at 0.5 ml min^−1. The column dead time (T0) was estimated by ascorbic acid retention time which was measured at 210 nm. The obtained retention data were used to calculate the chromatographic parameter corresponding to the capacity factor k’ as follows: k’ = (Tr–T0)/T0. All capacity factors given represent the mean of 2–4 determinations of each sample solution.
For this study, we considered 28 phytochemical compounds containing sulfur-based groups. […] Most of these compounds are garlic-derived substances with bioactive functions. […] We chose them because of their bioactive functionality and their similar metabolism within the plants and human body. Each analytical standard stock solution was prepared in the mobile phase at concentrations ranging from 100 to 800 µg ml^−1, depending on the solubility of the compound and their DAD detector response. Peak identification in samples was carried out by comparing retention times with reference standards.

[2] = parameters: method as in Egen-Schwind et al., 1992; details: ref Egen-Schwind et al., 1992, cited from earlier work; for lipophilicity (relative, in words): 1,3- vs 1,2-vinyldithiin; for elimination / tissue accumulation: serum, kidney, fat tissue
[3] = parameters: method as in Torres-Palazzolo et al. (2018); details: ref Torres-Palazzolo et al. (2018); cited from earlier work
[4] = cited from earlier work

Compound	Log (k'IAM) [1]	also measured
C[S+]([O-])C[C@H](N)C(=O)O (single isomer, unassigned; (+)) [Methiin, (+)-S-methyl-L-cysteine sulfoxide]	−1.922	–
CC=C[S+]([O-])C[C@H](N)C(=O)O (stereo in doubt) [Isoalliin, (+)-S-trans-1-propenyl-L-cysteine sulfoxide]	−0.734	–
C=CC1CC=CSS1 (stereo not drawn) [1,2-vinyldithiin]	–	lipophilicity (relative, in words) [2]: more lipophilic; elimination / tissue accumulation [2]: showed a tendency to accumulate in fat tissues
C=CC1SC=CCS1 (stereo not drawn) [2-vinyldithiin, 2-Vinyl-4H-1,3-dithiine]	0.237	lipophilicity (relative, in words) [2]: less lipophilic; elimination / tissue accumulation [2]: rapidly eliminated from serum, the kidney, and fat tissue; permeation through the intestine [3]: less than 5%
C=CCS[S+]([O-])CC=C (stereo not drawn) [Allicin, diallyl thiosulfinate]	−0.409	cellular permeability (in words) ([4]; ref Rahman, 2007): can easily permeate cell membranes of phospholipids bilayers; metabolism (in words) ([4]; ref Rahman, 2007): rapidly metabolized and transformed into other active compounds; permeation through the intestine [3]: less than 5%
C=CCN=C=S [Allyl isothiocyanate]	0.118	–
C=CCS [Allyl mercaptan]	−0.197	–
C=CCSC [Allyl methyl sulfide, allyl methyl sulfide]	−1.021	–
S=C=NCc1ccccc1 [Benzyl isothiocyanate]	0.571	–
C=CCSSSCC=C [Diallyl Trisulfide, diallyl trisulfide]	0.781	cellular permeability (in words) ([4]; not told): high cellular permeability
C=CCSSCC=C [Diallyl disulfide, diallyl disulfide]	0.554	cellular permeability (in words) ([4]; ref Rahman, 2007): high cellular permeability
C=CCSCC=C [Diallyl sulfide, diallyl sulfide]	0.222	permeation through the intestine [3]: less than 5%
CSSC [Dimethyl disulfide, dimethyl disulfide]	−0.017	–
C=CCSS/C=C/C[S+]([O-])CC=C (stereo not drawn) [E-Ajoene]	0.022	–
CCSSCC [Ethyl disulfide]	0.420	–
CCSCC [Ethyl sulfide]	−0.099	–
c1coc(CSSCc2ccco2)c1 [Furfuryl disulfide, furfuryl disulfide]	0.713	–
OCc1c[nH]c2ccccc12 [Indole-3-carbinol, indole-3-carbinol]	−0.204	–
CCCSSSC [Methyl Propyl Trisulfide]	0.810	–
S=C=NCCc1ccccc1 [Phenethyl isothiocyanate]	0.663	–
S=C=Nc1ccccc1 [Phenyl isothiocyanate]	0.746	–
CCCSSCCC [Propyl disulfide]	0.913	–
C[S+]([O-])CCCCN=C=S (stereo not drawn) [Sulforaphane, sulforaphane]	−0.514	–
C[S+]([O-])/C=C/CCN=C=S (stereo not drawn) [Sulforaphene, S-sulforaphene]	−0.521	–
C=CCSS/C=C\C[S+]([O-])CC=C (stereo not drawn) [Z-Ajoene]	0.015	–
S-allyl-L-cysteine	−1.102	cellular permeability (in words) ([4]; ref Rahman, 2007): high cellular permeability
S-methyl-L-cysteine	−1.322	–
S-propyl-L-cysteine	−1.645	–
